Experimental findings from patent publication US20240376154A1, “BIS-INTERCALATING PEPTIDES, CONJUGATES AND METHODS OF USE” (ZYMEWORKS BC INC., priority 2023, published 2024) are described below.

For the series the following is noted: amide bond; 32-membered ring.
For “Benzyl tert-butyl ((7′R,19a'S,26′R,30'S,38a'S)-30′-isopropyl-12′,15′,31′,34′-tetramethyl-6′,10′,13′,16′,19′,25′,29′,32′,35′,38′-decaoxotetratriacontahydro-2′H,6′H,12′H-spiro[cyclopropane-1,11′-dipyrido[1,2-a:1′,2′-q][1,4,7,10,13,17,20,23,26,29]decaazacyclodotriacontine]-7′,26′-diyl)dicarbamate”, the ring closure, isolated yield turned out to be 48%. With “Tert-butyl (4-nitrobenzyl) ((7R,11S,19aS,26R,30S,38aS)-11,30-diisopropyl-12,15,31,34-tetramethyl-6,10,13,16,19,25,32,35,38-nonaoxodotriacontahydro-2H,6H,10H,25H-dipyrido[2,1-b1: 2′,1′-l][1,17]dioxa[4,7,10,13,20,23,26,29]octaazacyclodotriacontine-7,26-diyl)dicarbamate” the figure was 50%; with “Benzyl tert-butyl ((7R,11S,19aS,26R,30S,38aS)-11-cyclohexyl-30-isopropyl-12,15,31,34-tetramethyl-6,10,13,16,19,25,29,32,35,38-decaoxohexatriacontahydro-2H,6H-dipyrido[1,2-a:1′,2′-q][1,4,7,10,13,17,20,23,26,29]decaazacyclodotriacontine-7,26-diyl)dicarbamate”, 58%; with “Di-tert-butyl ((7R,11S,19aS,26R,30S,38aS)-11,30-diisopropyl-9,12,15,28,31,34-hexamethyl-6,10,13,16,19,25,29,32,35,38-decaoxohexatriacontahydro-2H,6H-dipyrido[1,2-a:1′,2′-q][1,4,7,10,13,17,20,23,26,29]decaazacyclodotriacontine-7,26-diyl)dicarbamate”, 65%. The same measure for “Benzyl tert-butyl ((7R,11S,19aS,26R,30S,38aS)-11,30-diisopropyl-12,31-dimethyl-6,10,13,16,19,25,29,32,35,38-decaoxohexatriacontahydro-2H,6H-dipyrido[1,2-a:1′,2′-q][1,4,7,10,13,17,20,23,26,29]decaazacyclodotriacontine-7,26-diyl)dicarbamate”: 53%; for “Tert-butyl (4-nitrobenzyl) ((7R,11S,19aS,26R,30S,38aS)-11,30-diisopropyl-12,15,31,34-tetramethyl-6,13,16,19,25,29,32,35,38-nonaoxotetratriacontahydro-2H,6H,10H-dipyrido[2,1-b1: 2′,1′-l][1]oxa[4,7,10,13,17,20,23,26,29]nonaazacyclodotriacontine-7,26-diyl)dicarbamate”: 68%; for “Di-tert-butyl ((7R,8R,11S,19aS,26R,27R,30S,38aS)-11,30-diisopropyl-8,12,15,27,31,34-hexamethyl-6,10,13,16,19,25,29,32,35,38-decaoxodotriacontahydro-2H,6H,10H,25H-dipyrido[2,1-b1: 2′,1′-l][1,17]dioxa[4,7,10,13,20,23,26,29]octaazacyclodotriacontine-7,26-diyl)dicarbamate”: 50%. With “Benzyl tert-butyl ((7R,11S,19aS,26R,30S,38aS)-11-((S)-sec-butyl)-30-isopropyl-12,15,31,34-tetramethyl-6,10,13,16,19,25,29,32,35,38-decaoxohexatriacontahydro-2H,6H-dipyrido[1,2-a:1′,2′-q][1,4,7,10,13,17,20,23,26,29]decaazacyclodotriacontine-7,26-diyl)dicarbamate” the figure was 75%; with “Tert-butyl (4-nitrobenzyl) ((7R,11R,19aS,26R,30S,38aS)-11-((S)-sec-butyl)-30-isopropyl-12,15,31,34-tetramethyl-6,13,16,19,25,29,32,35,38-nonaoxotetratriacontahydro-2H,6H,10H-dipyrido[2,1-b1: 2′,1′-l][1]oxa[4,7,10,13,17,20,23,26,29]nonaazacyclodotriacontine-7,26-diyl)dicarbamate”, 72%. As to “Benzyl tert-butyl ((7R,11S,19aS,26R,30S,38aS)-15,34-diethyl-11,30-diisopropyl-12,31-dimethyl-6,10,13,16,19,25,29,32,35,38-decaoxohexatriacontahydro-2H,6H-dipyrido[1,2-a:1′,2′-q][1,4,7,10,13,17,20,23,26,29]decaazacyclodotriacontine-7,26-diyl)dicarbamate”, the ring closure, isolated yield stood at 68%. The same measure for “Benzyl tert-butyl ((7R,11S,19aS,26R,30S,38aS)-11,30-diisopropyl-12,15,31,34-tetramethyl-6,10,13,16,19,25,29,32,35,38-decaoxotetratriacontahydro-2H,6H,10H-dipyrido[2,1-b1: 2′,1′-l][1]oxa[4,7,10,13,17,20,23,26,29]nonaazacyclodotriacontine-7,26-diyl)dicarbamate”: 63%; for “Benzyl tert-butyl ((4aS,8R,14aS,23S,27R,33aS)-23-isopropyl-19,22,38-trimethyl-5,9,15,18,21,24,28,34,37,40-decaoxotetracontahydro-11H-tripyrido[1,2-a:1′,2′-j:1″,2″-q][1,4,7,10,13,17,20,23,26,29]decaazacyclodotriacontine-8,27-diyl)dicarbamate”: 64%. Consider “Benzyl tert-butyl ((13S,16R,19aS,32S,35R,38aS)-13,32-diisopropyl-8,14,27,33-tetramethyl-6,9,12,15,19,25,28,31,34,38-decaoxohexatriacontahydro-2H,6H-dipyrido[2,1-c: 2′,1′-s][1,4,7,10,13,17,20,23,26,29]decaazacyclodotriacontine-16,35-diyl)dicarbamate”, for which the ring closure, isolated yield came to 57%. With “Benzyl tert-butyl ((7R,19aS,26R,30S,38aS)-30-isopropyl-11,11,12,15,31,34-hexamethyl-6,10,13,16,19,25,29,32,35,38-decaoxohexatriacontahydro-2H,6H-dipyrido[1,2-a:1′,2′-q][1,4,7,10,13,17,20,23,26,29]decaazacyclodotriacontine-7,26-diyl)dicarbamate” the figure was 37%; with “Benzyl tert-butyl ((7R,10aS,22aS,29R,32aS,44aS)-6,10,16,22,28,32,38,44-octaoxotetracontahydro-2H,19H-tetrapyrido[1,2-a1: 1′,2′-d: 1″,2″-k: 1′″,2′″-t][1,17]dioxa[4,7,11,14,20,23,27,30]octaazacyclodotriacontine-7,29-diyl)dicarbamate”, 44%; with “Benzyl tert-butyl ((5aS,9R,15aS,24S,28R,34aS)-24-isopropyl-20,23,39-trimethyl-6,10,16,19,22,25,29,35,38,41-decaoxotetracontahydro-1H,12H-azepino[1,2-j]dipyrido[1,2-a:1′,2′-q][1,4,7,10,13,17,20,23,26,29]decaazacyclodotriacontine-9,28-diyl)dicarbamate”, 22%. “Benzyl tert-butyl ((7R,11S,19aS,26R,30S,38aS)-11-isopropyl-12,15,31,34-tetramethyl-6,10,13,16,19,25,29,32,35,38-decaoxo-30-phenylhexatriacontahydro-2H,6H-dipyrido[1,2-a:1′,2′-q][1,4,7,10,13,17,20,23,26,29]decaazacyclodotriacontine-7,26-diyl)dicarbamate” had a ring closure, isolated yield of 26%.

Regarding “Bis(4-nitrobenzyl) ((7R,11S,19aS,26R,30S,38aS)-11,30-diisopropyl-12,15,31,34-tetramethyl-6,13,16,19,25,32,35,38-octaoxodotriacontahydro-2H,6H,10H,25H-dipyrido[2,1-b1: 2′,1′-l][1,17]dioxa[4,7,10,13,20,23,26,29]octaazacyclodotriacontine-7,26-diyl)dicarbamate”, the ring closure, isolated yield was 68%.

On to “Benzyl tert-butyl ((7R,10aS,23aS,30R,33aS,46aS)-19,42-dimethyl-6,10,17,20,23,29,33,40,43,46-decaoxotetratetracontahydro-6H,29H-bis(azepino)[1,2-j:1′,2′-z]dipyrido[1,2-a:1′,2′-q][1,4,7,10,13,17,20,23,26,29]decaazacyclodotriacontine-7,30-diyl)dicarbamate”, for which the ring closure, isolated yield stood at 74%. The same measure for “Benzyl tert-butyl ((7R,11S,19aS,26R,30S,38aS)-11,30-diisopropyl-12,31-dimethyl-6,10,13,19,25,29,32,38-octaoxodotriacontahydro-2H,6H,16H,25H-dipyrido[1,2-a1:1′,2′-k][1,17]dioxa[4,7,11,14,20,23,27,30]octaazacyclodotriacontine-7,26-diyl)dicarbamate”: 58%; for “Benzyl tert-butyl ((7R,11S,19aS,26R,30S,38aS)-11,15,30,34-tetraisopropyl-12,31-dimethyl-6,10,13,16,19,25,29,32,35,38-decaoxohexatriacontahydro-2H,6H-dipyrido[1,2-a:1′,2′-q][1,4,7,10,13,17,20,23,26,29]decaazacyclodotriacontine-7,26-diyl)dicarbamate”: 94%. In the case of “Benzyl tert-butyl ((7R,11S,19aS,26R,30S,38aS)-11,30-diisopropyl-12,31-dimethyl-6,10,13,16,19,25,29,32,35,38-decaoxo-15,34-dipropylhexatriacontahydro-2H,6H-dipyrido[1,2-a:1′,2′-q][1,4,7,10,13,17,20,23,26,29]decaazacyclodotriacontine-7,26-diyl)dicarbamate”, the ring closure, isolated yield turned out to be 85%. As to “Benzyl tert-butyl ((7R,11S,19aS,26R,30S,38aS)-12,31-diethyl-11,30-diisopropyl-15,34-dimethyl-6,10,13,16,19,25,29,32,35,38-decaoxohexatriacontahydro-2H,6H-dipyrido[1,2-a:1′,2′-q][1,4,7,10,13,17,20,23,26,29]decaazacyclodotriacontine-7,26-diyl)dicarbamate”, the ring closure, isolated yield came out at 40%. For the substance “Benzyl tert-butyl ((7R,11S,19aS,26R,30S,38aS)-11,30-di((S)-sec-butyl)-12,15,31,34-tetramethyl-6,10,13,16,19,25,29,32,35,38-decaoxohexatriacontahydro-2H,6H-dipyrido[1,2-a:1′,2′-q][1,4,7,10,13,17,20,23,26,29]decaazacyclodotriacontine-7,26-diyl)dicarbamate”, the ring closure, isolated yield is 90%.
